According to PubChem BioAssay AID2060905 (Molecular Pharmacology Branch, DTP, NCI, 2025):

Test system: 282377-053-R-J1-PDC complex spheroid viability
Experiment: Anticancer human tumor 282377-053-R-J1-PDC patient-derived colon adenocarcinoma cell line growth inhibition [RAS]
Settings: for IC50: curve of first compound; for viability, T/C: stronger effect = lower value
Summary of the method: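 Agents were tested in combination matrices in half-log decrements from a top concentration at or near clinical Cmax (10 microM if undetermined). Targets were multi-cell spheroids of tumour lines plus HUVEC and MSC stromal cells.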
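Note: spheroids exposed to agents for seven days before readout.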
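Throughout, for viability, T/C: luminescence viability as percent of DMSO vehicle control wells.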

IC50 (second compound 0.000949 µM): > 300 nM | IC50 (second compound 0.003 µM): > 300 nM | IC50 (second compound 0.00949 µM): > 300 nM | IC50 (second compound 0.03 µM): > 300 nM | IC50 (second compound 0.0949 µM): > 300 nM | IC50 (second compound 0.3 µM): > 300 nM
Compound: CCc1c2c(nc3ccc(O)cc13)-c1cc3c(c(=O)n1C2)COC(=O)[C@]3(O)CC + CCn1c(-c2cc(N3CCN(C)CC3)cnc2C(C)OC)c2c3cc(ccc31)-c1csc(n1)CC(NC(=O)C1CC1C)C(=O)N1CCCC(N1)C(=O)OCC(C)(C)C2
viability, T/C (second compound 0.000949 µM, first compound 0.000949 µM): 130% | viability, T/C (second compound 0.000949 µM, first compound 0.003 µM): 112% | viability, T/C (second compound 0.000949 µM, first compound 0.00949 µM): 153% | viability, T/C (second compound 0.000949 µM, first compound 0.03 µM): 124% | viability, T/C (second compound 0.000949 µM, first compound 0.0949 µM): 86.5% | viability, T/C (second compound 0.000949 µM, first compound 0.3 µM): 81% | viability, T/C (second compound 0.003 µM, first compound 0.000949 µM): 109% | viability, T/C (second compound 0.003 µM, first compound 0.003 µM): 114% | viability, T/C (second compound 0.003 µM, first compound 0.00949 µM): 151% | viability, T/C (second compound 0.003 µM, first compound 0.03 µM): 107% | viability, T/C (second compound 0.003 µM, first compound 0.0949 µM): 119% | viability, T/C (second compound 0.003 µM, first compound 0.3 µM): 66.2% | viability, T/C (second compound 0.00949 µM, first compound 0.000949 µM): 107% | viability, T/C (second compound 0.00949 µM, first compound 0.003 µM): 112% | viability, T/C (second compound 0.00949 µM, first compound 0.00949 µM): 136% | viability, T/C (second compound 0.00949 µM, first compound 0.03 µM): 105% | viability, T/C (second compound 0.00949 µM, first compound 0.0949 µM): 112% | viability, T/C (second compound 0.00949 µM, first compound 0.3 µM): 77.2% | viability, T/C (second compound 0.03 µM, first compound 0.000949 µM): 116% | viability, T/C (second compound 0.03 µM, first compound 0.003 µM): 102% | viability, T/C (second compound 0.03 µM, first compound 0.00949 µM): 139% | viability, T/C (second compound 0.03 µM, first compound 0.03 µM): 122% | viability, T/C (second compound 0.03 µM, first compound 0.0949 µM): 118% | viability, T/C (second compound 0.03 µM, first compound 0.3 µM): 65.4% | viability, T/C (second compound 0.0949 µM, first compound 0.000949 µM): 115% | viability, T/C (second compound 0.0949 µM, first compound 0.003 µM): 122% | viability, T/C (second compound 0.0949 µM, first compound 0.00949 µM): 162% | viability, T/C (second compound 0.0949 µM, first compound 0.03 µM): 131% | viability, T/C (second compound 0.0949 µM, first compound 0.0949 µM): 116% | viability, T/C (second compound 0.0949 µM, first compound 0.3 µM): 69.4% | viability, T/C (second compound 0.3 µM, first compound 0.000949 µM): 131% | viability, T/C (second compound 0.3 µM, first compound 0.003 µM): 131% | viability, T/C (second compound 0.3 µM, first compound 0.00949 µM): 161% | viability, T/C (second compound 0.3 µM, first compound 0.03 µM): 104% | viability, T/C (second compound 0.3 µM, first compound 0.0949 µM): 109% | viability, T/C (second compound 0.3 µM, first compound 0.3 µM): 77.9%
